Reference: patent publication US20250304600A1, “PHARMACEUTICAL COMPOUNDS AND COMPOSITIONS AS c-KIT KINASE INHIBITORS” (Enanta Pharmaceuticals, Inc., priority 2023, published 2025)

Experiments:
[1] = target: T1, Recombinant human c-KIT kinase (Homo sapiens, UniProt P10721); test: c-KIT kinase chemiluminescence assay (ADP-Glo); type: biochemical; conditions: ATP 50 μM
T1 construct: purchased Promega V4498
Description: The c-KIT Kinase Enzyme System (V4498) and ADP-Glo™ Kinase Assay kit (V6930) were purchased from Promega (Madison, WI). DMSO (D2650) was purchased from Sigma-Aldrich (Burlington, MA).
c-KIT Kinase Chemiluminescence Assay:
Kinase Reaction: The kinase assay was based on the recommended protocol by c-KIT Kinase Enzyme System from Promega. Recombinant human c-KIT kinase in 3 μL of assay buffer (40 mM Tris pH 7.5, 20 mM MgCl2, 0.1 mg/mL BSA and 50 μM DTT) was added to the test or high control wells and 3 μL of assay buffer was added to the low control wells. The microplate was centrifuged at 800 rotations per minute (rpm) for 60 s and incubated at room temperature (RT) for 30 min. Next, 2 μL of buffered ATP and polyEY substrate solution was added to all wells. The microplate was centrifuged at 800 rpm for 60 s and incubated at RT for 2 h.
ADP detection with ADP-Glo™ Kinase Assay: After the kinase reaction incubation, 5 μL of ADP-Glo™ reagent was added to all wells. The microplate was centrifuged at 800 rpm for 60 s and incubated at RT for 40 min. Ten microliter (10 μL) of Kinase Detection Reagent (Luciferin-Luciferase system) was then added to all wells. The microplate was centrifuged at 800 rpm for 60 s and incubated at RT for 60 min. Kinase activity was measured as an increase in luminescence at RT in an Envision plate reader equipped with 560 nm filters and operating in endpoint mode.
Data Analysis: Endpoint chemiluminescence from high and low control wells were used to calculate normalized c-KIT activity at various concentrations of test compounds. The normalized activities were fitted to inhibitor-versus-normalized response fit in GraphPad Prism 7 to determine half-maximal inhibitory concentration (IC50) and hill coefficient values (H).
Where I is the inhibitor concentration and H is the Hill coefficient.

[2] = system: M-07e cells which endogenously express human c-KIT; test: M-07e cellular assay: SCF-mediated cell proliferation (CellTiter Glo); type: cell-based; conditions: 72 h, SCF-mediated proliferation of M-07e cells
Description: M-07e cells (Creative Bioarray, CSC-C0249) which endogenously express human c-KIT were used to evaluate the effect of compounds on stem cell factor (SCF)-mediated cell proliferation. M-07e cells were cultured in growth media (RPMI+10% FBS+1% penicillin/streptomycin+10 ng/mL GM-CSF) at 5E5-1.5E6 cells/mL, replenishing media every 3-4 days. 1.5E4 cells were seeded per well in 384 well tissue culture treated plates in […] assay media (RPMI+10% FBS+1% penicillin/streptomycin) without growth factor stimulation and incubated at 37° C. in a CO2 humidity-controlled incubator. Twenty-four hours later, three-fold serially diluted test compounds in media containing SCF (at the previously determined EC90) were added to the plated M-07e cells and incubated for an additional 72 hours. Cell viability was determined by adding 25 μL CellTiter Glo (Promega) to the cells and the luminescence was measured using a Perkin Elmer Envision plate reader. The EC50 was determined using GraphPad Prism. Percent cell growth was determined after normalizing the curve to the mean RLU high control (no compound control wells) at 100% and the mean RLU low control (no SCF control wells) at 0%.

T1 sequence (P10721 544-976 limits assumed): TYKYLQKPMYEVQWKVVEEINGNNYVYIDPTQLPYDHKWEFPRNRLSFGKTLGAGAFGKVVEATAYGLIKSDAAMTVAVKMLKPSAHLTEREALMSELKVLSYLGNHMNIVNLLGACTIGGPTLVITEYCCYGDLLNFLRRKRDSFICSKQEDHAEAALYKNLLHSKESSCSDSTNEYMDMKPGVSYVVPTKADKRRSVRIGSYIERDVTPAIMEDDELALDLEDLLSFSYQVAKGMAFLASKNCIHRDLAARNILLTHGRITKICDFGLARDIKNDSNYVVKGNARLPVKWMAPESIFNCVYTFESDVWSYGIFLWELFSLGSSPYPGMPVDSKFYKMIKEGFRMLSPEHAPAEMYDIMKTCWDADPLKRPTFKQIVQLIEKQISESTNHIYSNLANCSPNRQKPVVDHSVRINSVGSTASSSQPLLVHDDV

| SMILES | IC50 [1] | EC50 [2] |
| --- | --- | --- |
| Cc1ncc(-c2nc([C@H]3C[C@@H]3F)cs2)cc1NC(=O)c1cnn2ccc(N3CC4(C3)CC(O)(C(F)F)C4)cc12 [Example 405] | 100 to 1000 nM | < 100 nM |
| Cc1ncc(-c2nnn(CCO)n2)cc1NC(=O)c1cnn2ccc(N3CC4(C3)CC(O)(C(F)F)C4)cc12 [Example 387] | > 1000 nM | > 1000 nM |
| Cc1ncc(-c2noc([C@H]3C[C@@H]3F)n2)cc1NC(=O)c1cnc(-c2ccc3c(c2)c(C)nn3CC(C)(C)O)o1 [Example 22a] | 100 to 1000 nM | < 100 nM |
| Cc1ccc(-c2noc([C@H]3C[C@@H]3F)n2)cc1NC(=O)c1cnc(-c2cnc(N)nc2)o1 [Example 308-64] | > 1000 nM |  |
| Cc1ncc(-c2ncc(OC(F)(F)F)cn2)cc1NC(=O)c1cnn2ccc(-c3c(C)nc(N)nc3C)cc12 [Example 364] | > 1000 nM |  |
| Cc1ccc(-c2nc([C@H]3C[C@@H]3F)cs2)cc1NC(=O)c1cnn2ccc(N3CC4(COC4)C3)cc12 [Example 309] | < 100 nM |  |
| Cc1ncc(-c2nnn(C[C@H](O)C(F)(F)F)n2)cc1NC(=O)c1cnn2ccc(N3CC4(C3)CC(O)(C(F)F)C4)cc12 [Example 380] | 100 to 1000 nM | 100 to 1000 nM |
| Cc1ccc(-c2noc([C@H]3C[C@@H]3C(F)F)n2)cc1NC(=O)c1cnn2ccc(-c3c(C)nc(N)nc3C)cc12 [Example 390] | 100 to 1000 nM | 100 to 1000 nM |
| Cc1ccc(-c2noc([C@H]3C[C@@H]3F)n2)cc1NC(=O)c1cnc2cccnn12 [Example 16] | > 1000 nM |  |
| C#Cc1ccc2c(C(=O)Nc3cc(-c4noc([C@H]5C[C@@H]5F)n4)ccc3C)cnn2c1 [Example 106] |  | < 100 nM |
| Cc1ncc(-c2noc(C3CC(OC(F)F)C3)n2)cc1NC(=O)c1cnn2ccc(N3CC4(C3)CC(O)(C(F)(F)F)C4)cc12 (stereo not drawn) [Example 281-40] | 100 to 1000 nM | < 100 nM |
| Cc1ccc(-c2noc(C3C[C@@H]3C(F)F)n2)cc1NC(=O)c1ccc(N)nc1 (stereo partly drawn) [Example 400] | > 1000 nM | > 1000 nM |
| Cc1ncc(-c2noc(C3C[C@@H]3C(F)F)n2)cc1NC(=O)c1ccc(NC(=O)OC(C)(C)C)nc1 (stereo partly drawn) [Example 399] | > 1000 nM | > 1000 nM |
| Cc1ncc(-c2noc([C@H]3C[C@@H]3C(F)F)n2)cc1NC(=O)c1ccc(N)nc1 [Example 401] | > 1000 nM | 100 to 1000 nM |
| COCCn1nnc(-c2cnc(C)c(NC(=O)c3cnn4ccc(N5CC6(C5)CC(O)(C(F)F)C6)cc34)c2)n1 [Example 386] | 100 to 1000 nM | 100 to 1000 nM |
| COC(=O)N1CC(c2nc(-c3cc(NC(=O)c4cnn5ccc(N6CC7(C6)CC(O)(C(F)F)C7)cc45)c(C)s3)no2)C1 [Example 388] | < 100 nM | < 100 nM |
| Cc1ncc(-c2nnn(CC(C)(C)C#N)n2)cc1NC(=O)c1cnn2ccc(N3CC4(C3)CC(O)(C(F)F)C4)cc12 [Example 383] | 100 to 1000 nM | 100 to 1000 nM |
| Cc1ncc(-c2noc([C@H]3C[C@@H]3C(F)F)n2)cc1NC(=O)c1cnn2ccc(-c3c(C)nc(N)nc3C)cc12 [Example 391] | > 1000 nM | > 1000 nM |
| Cc1ncc(-c2nnn(C[C@H](O)C(F)F)n2)cc1NC(=O)c1cnn2ccc(N3CC4(C3)CC(O)(C(F)F)C4)cc12 [Example 378] | 100 to 1000 nM | 100 to 1000 nM |
| O=C(Nc1cc(-c2ncc(C3CC3)cn2)ccc1C(F)F)c1cnn2ccc(Br)cc12 [Example 392] | > 1000 nM | > 1000 nM |
| Cc1nn(-c2ccc(C3CC3)cc2)cc1NC(=O)c1cnn2ccc(N3CC4(COC4)C3)cc12 [Example 372] | > 1000 nM |  |
| Cc1ccc(-c2noc([C@H]3C[C@@H](OC(F)F)C3)n2)cc1NC(=O)c1cnn2ccc(N3CC4(COC4)C3)cc12 [Example 242] |  | < 100 nM |
| Cc1ncc(-c2nnn(CCC(F)(F)F)n2)cc1NC(=O)c1cnn2ccc(N3CC4(C3)CC(O)(C(F)F)C4)cc12 [Example 384] | 100 to 1000 nM | < 100 nM |
| Cc1ncc(-c2ccn3ncc(C(=O)Nc4cc(-c5noc([C@H]6C[C@@H]6F)n5)ccc4C)c3c2)c(C)n1 [Example 168] | < 100 nM |  |

| SMILES | IC50 [1] | EC50 [2] |
| --- | --- | --- |
| Cc1ccc(-c2noc([C@H]3C[C@@H]3F)n2)cc1NC(=O)c1ccc(N)nc1 [Example 397] | > 1000 nM | > 1000 nM |
| O=C(Nc1cn(-c2ccc(C3CC3)cc2)nc1C(F)F)c1cnn2ccc(N3CC4(COC4)C3)cc12 [compound 373] |  | > 1000 nM |
| Cc1ccc(-c2noc([C@H]3C[C@@H]3F)n2)cc1NC(=O)c1cnc(N2CC(C(=O)O)C2)s1 [Example 98-4] |  | > 1000 nM |
| Cc1ncc(-c2noc([C@H]3C[C@@H]3F)n2)cc1NC(=O)c1cnc(-c2ccc3nn(CC(C)(C)O)c(C)c3c2)o1 [Example 23a] | 100 to 1000 nM | 100 to 1000 nM |
| Cc1ccc(-c2noc([C@H]3C[C@@H]3F)n2)cc1NC(=O)c1cnn2cc(-c3cn(C(F)F)nn3)ccc12 [Example 107] |  | < 100 nM |
| Cc1ncc(-c2nnn(C3CC3)n2)cc1NC(=O)c1cnn2ccc(N3CC4(C3)CC(O)(C(F)F)C4)cc12 [Example 403] | 100 to 1000 nM | < 100 nM |
| Cc1ncc(-c2noc(C3C[C@@H]3F)n2)cc1NC(=O)c1cnn2ccc(-c3cn(C[C@H](O)C(C)(C)O)nc3C3CC3)cc12 (stereo partly drawn) [Example 406] | < 100 nM | < 100 nM |
| Cc1ncc(-c2nnn[nH]2)cc1NC(=O)c1cnn2ccc(N3CC4(C3)CC(O)(C(F)F)C4)cc12 [Example 394] | > 1000 nM | > 1000 nM |
| Cc1nc(N)nc(C)c1-c1ccn2ncc(C(=O)Nc3cc(-c4noc(C5CN(C(=O)[C@H]6C[C@@H]6F)C5)n4)sc3C)c2c1 [Example 371] | > 1000 nM |  |
| Cc1ncc(-c2noc(C3CC(OC(F)F)C3)n2)cc1NC(=O)c1cnn2ccc(N3CC4(C3)CC(O)(C(F)F)C4)cc12 (stereo not drawn) [Example 281-44] | < 100 nM | < 100 nM |
| Cc1cc(F)c(-c2noc(C3CC(OC(F)F)C3)n2)cc1NC(=O)c1cnn2ccc(N3CC4(COC4)C3)cc12 (stereo not drawn) [Example 281-58] | 100 to 1000 nM | 100 to 1000 nM |
| Cc1ncc(-c2nnn(C[C@@H](O)C(F)(F)F)n2)cc1NC(=O)c1cnn2ccc(N3CC4(C3)CC(O)(C(F)F)C4)cc12 [Example 381] | 100 to 1000 nM | 100 to 1000 nM |
| Cc1ncc(-c2noc(N3CC(O)(C(F)(F)F)C3)n2)cc1NC(=O)c1cnn2ccc(N3CC4(C3)CC(O)(C(F)F)C4)cc12 [Example 389] | > 1000 nM | > 1000 nM |
| CCn1nnc(-c2cnc(C)c(NC(=O)c3cnn4ccc(N5CC6(C5)CC(O)(C(F)F)C6)cc34)c2)n1 [Example 382] | 100 to 1000 nM | < 100 nM |
| Cc1ncc(-c2nnn(C[C@@H](O)C(F)F)n2)cc1NC(=O)c1cnn2ccc(N3CC4(C3)CC(O)(C(F)F)C4)cc12 [Example 379] | 100 to 1000 nM | 100 to 1000 nM |
| Cc1ccc(-c2noc([C@H]3C[C@@H]3F)n2)cc1NC(=O)c1cnc2n1Cc1ccccc1-2 [Example 99] | < 100 nM |  |
| Cc1nc(N)nc(C)c1-c1ccn2ncc(C(=O)Nc3cc(-c4noc([C@H]5C[C@@H](OC(F)(F)F)C5)n4)sc3C)c2c1 [Example 368] | > 1000 nM |  |
| Cc1ncc(-c2ncc(OC(F)(F)F)cn2)cc1NC(=O)c1cnn2ccc(N3CC4(C3)CC(O)(C(F)F)C4)cc12 [Example 313] | 100 to 1000 nM | < 100 nM |
| COCCn1nc(C)c(-c2ccc3c(C(=O)Nc4cc(-c5noc([C@H]6C[C@@H]6F)n5)ccc4C)cnn3c2)c1C [Example 147] | < 100 nM | < 100 nM |
| Cc1nc(N)nc(C)c1-c1ccn2ncc(C(=O)Nc3cc(-c4noc(C5CN(C(=O)OC(C)(C)C)C5)n4)sc3C)c2c1 [Example 369] | > 1000 nM |  |
| Cc1ccc(-c2noc(C3C[C@@H]3F)n2)cc1NC(=O)c1cnc(-c2cnc(N3CC(O)(C(F)(F)F)C3)nc2)o1 (stereo partly drawn) [Example 402] | > 1000 nM | 100 to 1000 nM |
| Cc1ncc(-c2nnc(C3C[C@@H]3F)o2)cc1NC(=O)c1cnn2ccc(N3CC4(C3)CC(O)(C(F)F)C4)cc12 (stereo partly drawn) [Example 404] | 100 to 1000 nM | 100 to 1000 nM |
| Cc1nc(N)nc(C)c1-c1ccn2ncc(C(=O)Nc3cc(-c4noc([C@H]5C[C@@H]5F)n4)sc3C)c2c1 [Example 370] | > 1000 nM |  |
